Assay type in all cases: cell-based, human
The test system of data set [1] is BM CD34+-derived cells (CD41+ MK). Kind of data set: Ploidy analysis of CD34+-derived cells treated with contractility inhibitors (flow cytometry). As to conditions: for maximal polyploid cell number: scaled to 10,000 initial cell input. Here is the method: Fresh purified bone marrow (BM)-derived humanCD34^+ cells were obtained from either the Penn Xenograft Core Facility or AllCells. Cells from at least 10 different donors were used in this study. Purity of the samples (>98%) was confirmed by flow cytometry with monoclonal antibody against human CD34 conjugated to phycoerythrin (PE). All experiments were performed in hematopoietic stem cell (HSC) expansion media (StemLine-II; Sigma) supplemented with 1× antibiotics, and the following human recombinant cytokines SCF (100 ng/mL) and Tpo (100 ng/mL). In some occasions, the media was also supplemented by G-CSF (100 ng/mL). All cytokines were purchased from R&D Systems. After cells were cultured for 4 days, they were treated with different doses of cellular contractility inhibitors, including (±)-blebbistatin (EMDBiosciences), reversine, ML-7, and Y-27632 (Sigma) for indicated durations of up to 3 days. Unfortunately, longer exposure to drug proves toxic even to polyploidy cells under the present culture conditions. Cells were then resuspended in PBS/2% FBS medium and subjected to ploidy analysis: cells were stained with CD41-FITC (BD Biosciences) at room temperature for 30 min, followed by Hoechst 33342 at 37° C. for 30 min. Then cells were stained with Annexin-V-PE (BD Biosciences) in the Annexin-V staining medium, followed by addition of 7-AAD. Stained cells were subjected to flow cytometric analysis (LSR-II; BD Biosciences): only viable cells (7-AAD^− and Hoechst 33342^+) were analyzed for ploidy. Cells with the DNA content of 8 N or higher were considered polyploid. To quantify absolute number of polyploid cells, viable cell number was counted before flow cytometry by Trypan blue exclusion, and this number was multiplied by percentages of each DNA compartment and subpopulations. Each multiplied number was then normalized by initial cell input number before drug treatment in culture.

In data set [2] the test system is CD34+ cells (CFU-E, BFU-E). Kind of data set: Erythroid progenitor number in the presence of Epo (flow cytometry). As to conditions: SCF, IL-3 and Epo, 3 days. The protocol:
FIG. 20, comprising FIG. 20A through FIG. 20E, illustrates the functional effects of myosin-II inhibition on HSC differentiation. FIG. 20A (Left) illustrates the enrichment of polyploid MKs by Bleb from CD34^+ cells cultured in SCF and Tpo (n=4 donors). Y-axis represents the ratios between polyploid MKs and 2n+4n MKs. […] Hill coefficient=7.0. FIG. 20A (Middle) illustrates the enrichment of BFU-E relative to CFU-GM in the absence of Epo. CD34^+-derived cells were cultured with SCF and Tpo under Bleb and progenitors were enumerated by colony forming assays. […] FIG. 20A (Right) illustrates the sensitivity of erythroid progenitors against Bleb in the presence of Epo. CD34^+ cells were cultured with SCF, IL-3 and Epo for 4 days before treating with Bleb for 3 days, followed by flow cytometry with Hoechst 33342 to stain for nuclei. BFU-E=CD34^+IL-3R^+CD36^-; CFU-E=CD34^-IL-3R^-CD36^+. Absolute values were normalized to […] initial cell input and fit to dose-response curves: […] FIG. 20B is a graph depicting the limiting dilution analyses showing functional LT-HSCs after myosin inhibition. Human-CD34^+-derived cells were treated with Bleb for 3 days and injected intra-tibally into irradiated NSG mice. […] FIG. 20D illustrates the kinetics of human-CD41^+ plts in circulation were measured after transplantation of human CD34^+-derived cells and normalized by the initial number of CD41^+ cells transplanted. Areas under curves show significant differences between drug-treated and untreated. […] FIG. 20E is a graph showing that human-CD41^+ plts derived in vivo after transplantation into NSG mice show the normal plt size compared to human blood plts. […] Freshly purified bone marrow-derived human CD34^+ cells were obtained from either the Penn Xenograft Core Facility or AllCells (Emeryville, Calif.). Cells from at least 20 different donors were used in this study. Purity of the samples (>98%) was confirmed by flow cytometry with monoclonal antibody against human CD34. All experiments were performed in HSC expansion media ([…], Sigma) supplemented with 1× antibiotics, 20% BIT 9500 Serum Substitute (StemCell Technologies), 2 mM […] (Gibco) and the following human recombinant cytokines: SCF (100 ng/ml) and Tpo (100 ng/ml). In some occasions, the media was also supplemented by G-CSF (100 ng/ml), epidermal growth factor (EGF, 100 ng/ml), transforming growth factor beta 1 (TGF-beta1, 100 ng/ml), erythropoietin (EPO, 1 U/ml) and interleukin-3 (IL-3, 10 ng/ml). All cytokines were purchased from R&D Systems. After cells were cultured for 4 days, they were treated with different doses of cellular contractility inhibitors, including (±)-Blebbistatin (Bleb) (EMD Biosciences) and/or CH-223191 (Sigma) for indicated durations of up to 3 days.
On the technique in general: In flow cytometry, cells or beads pass a laser one at a time.

The test system of a further data set is NMM-IIA pS1943. Kind of data set: pS1943 of NMM-IIA by phospho-specific flow cytometry. As to conditions: under cytokine stimulation (SCF and Tpo). Here is the method: Cells were fixed with 4% paraformaldehyde in PBS for 10 min, washed with PBS and resuspended in 0.1% saponin in HBSS (staining medium). The samples were then stained with antibodies against cytoplasmic antigens, including NMM-IIA (Sigma), NMM-IIB, phospho-NMM-IIA and caspase-3 (all from Cell Signaling Technology) for 30 min at room temperature. In some cases, cells were concurrently stained with PE anti-CD34 or anti-human CD38 for subpopulation analysis. Cells were then washed and stained with anti-rabbit or mouse secondary antibodies conjugated with Alexa 647 (Invitrogen) for 30 min, followed by analysis on FACSCalibur.

pEC50, pIC50, pKi: −log10 of the molar value. Like-named read-outs stand apart in the source and are kept apart here.

For `Cc1ccc2c(c1)C(=O)C1(O)CCN(c3ccccc3)C1=N2` (racemic) [blebbistatin, (±)-blebbistatin], in data set [1], the “drug dose found to be toxic” value is roughly 100 µM. In addition, in data set [1], the “enrichment of mature polyploid MKs” value is reported as roughly 10 folds. In data set [1] (20 μM), the “doubling time of polyploid cell generation” value is reported as 18.2 h. Further, the pKi (commonly the Ki on a negative log10 scale, so that one unit is a factor of ten) in data set [1] (MK polyploidization / progenitor depletion in cells, read-out: inhibition constant Ki) is roughly 5.12. For the same molecule, the “maximal polyploid cell number” value in data set [1] (SCF+Tpo CD41+) is on record as 278; in data set [1] (SCF+Tpo CD41−), 1; in data set [1] (SCF+Tpo+G-CSF CD41+), 141; in data set [1] (SCF+Tpo+G-CSF CD41−) it was 352. In addition, the pEC50 – broadly, the EC50 on a negative log10 scale, so that one unit is a factor of ten – in data set [1] (dose-response, n≥3 donors, read-out: MK polyploid cell number EC50) was 5.12. Also, the pIC50 (in general, the negative decadic logarithm of the IC50, by convention in mol/L) in data set [1] (treatment for 3 d, with or without G-CSF, read-out: CD41+ MK and non-MK polyploid cell number IC50) was 5.12; in data set [2] (read-out: BFU-E 2n IC50), 4.96; in data set [2] (read-out: BFU-E 4n IC50) it was 4.89; in data set [2] (read-out: CFU-E 2n IC50), 5.06; in data set [2] (read-out: CFU-E 4n IC50) it was 4.89. For the same molecule, the “effect on pS1943 level” value in the data set with NMM-IIA pS1943 was “inhibits the reduction of pS1943”.

The values above are taken from patent US9920295B2, “Bioreactor for isolation of rare cells and methods of use” (The Trustees of the University of Pennsylvania, priority 2012, dated 2018).
